Assay results published in patent US20230284627A1, “ANTIMICROBIAL COMPOSITIONS AND METHODS OF USE AND FOR MAKING SAME” (MIG USA, LLC, priority 2020, published 2023).

Tested on: Escherichia coli ATCC-25922, Klebsiella pneumonia ATCC-4352, Canadida albicans ATCC-10231, Pseudomonas aeruginosa ATCC-9027, Staphylococcus aureus ATCC-6538
Assay: Lawn-spray assay of AM635 disinfectant spray in SDS (Example 5)
Assay type: cell-based
Details: portions of the untreated area were also clear of bacterial growth
Protocol: The efficacy of 0.5-2% SDS solutions (in DiH2O)+0.1-10% Silver 1-Methyl imidazole were tested by performing a lawn-spray assay. The Silver 1-Methylimidazole Complex 635 (AM635) disinfectant sprays in SDS were prepared as described in Example 4. Briefly, a lawn of bacteria/yeast from a newly grown broth culture were inoculated onto their preferred agar media by dipping a swab into each broth, fully wetting the swab end, then swiping the swab back-and-forth from the top to the bottom of the plate, then turning the plate for a ¼ turn and re-streaking from top to bottom again. This technique ensures for total coverage of the inoculating bacteria/yeast across the face of the agar media. The dish was then opened and a paper towel placed over the top of the plate to cover only half of the surface while not touching the agar surface, so that the other half is exposed to the air. This exposed half was then treated with 2-pumps from a spray bottle containing the AM635 in SDS composition, ensuring that the exposed half of the plate was saturated by the test product. Each plate was treated using the same 2-pump criteria. All plates were then incubated “agar-down” overnight at 37° C. to allow the bacteria to fully grow (at 30° C. for yeast). […]

Question: With `CCCCCCCCCCCCOS(=O)(=O)[O-].[Na+]` [SDS, Sodium Dodecyl Sulfate] as the compound, how does the “effect on untreated area of lawn plate” value read?
Answer: hypermigration effect
